Tests used:
[1] = target: T1, Tyrosine-protein phosphatase non-receptor type 1 (Homo sapiens, UniProt P18031); test: Inhibition of recombinant human PTP1B expressed in Escherichia coli expression system using pNPP as substrate preincubated for 30 mins followed by substrate addition by […]
T1 sequence (P18031 whole entry): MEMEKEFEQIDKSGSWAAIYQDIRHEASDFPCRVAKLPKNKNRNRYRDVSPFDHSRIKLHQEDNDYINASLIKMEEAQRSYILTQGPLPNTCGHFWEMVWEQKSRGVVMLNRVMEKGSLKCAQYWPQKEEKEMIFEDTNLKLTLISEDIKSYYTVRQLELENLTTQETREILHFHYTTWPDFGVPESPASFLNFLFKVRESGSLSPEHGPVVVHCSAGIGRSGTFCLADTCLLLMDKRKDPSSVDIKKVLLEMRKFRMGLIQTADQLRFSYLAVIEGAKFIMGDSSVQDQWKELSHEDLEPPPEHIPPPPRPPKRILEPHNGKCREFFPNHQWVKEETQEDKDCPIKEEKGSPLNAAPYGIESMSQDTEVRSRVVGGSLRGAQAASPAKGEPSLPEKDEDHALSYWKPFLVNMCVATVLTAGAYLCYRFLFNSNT

[2] = target: T2, Tyrosine-protein phosphatase non-receptor type 1 (Homo sapiens) (UniProt P18031); test: Inhibition of recombinant human PTP1B expressed in Escherichia coli expression system using pNPP as substrate at 10 uM preincubated for 30 mins followed by substrate addition by […]
T2 sequence (whole entry): T1 sequence (P18031 whole entry)

[3] = target: T2, Tyrosine-protein phosphatase non-receptor type 1 (Homo sapiens); test: Inhibition of recombinant human PTP1B expressed in Escherichia coli expression system using pNPP as substrate at 100 uM preincubated for 30 mins followed by substrate addition by […]
[4] = Intrinsic clearance in mouse liver microsomes at 1 uM preincubated for 5 mins followed by NADPH addition measured up to 30 mins by LC-MS/MS analysis; format: ADME; details: 0.5 h
[5] = Intrinsic clearance in rat liver microsomes at 1 uM preincubated for 5 mins followed by NADPH addition measured up to 30 mins by LC-MS/MS analysis; format: ADME; details: 0.5 h
[6] = Intrinsic permeability of compound at 50 uM at pH 7.4 after 16 hrs by PAMPA assay; format: ADME

Row | SMILES | Ki [1] [µM] | inhibition [2] [%] | inhibition [3] [%] | CLH [4] [mL/min/g] | intrinsic clearance (CLint) [5] [mL/min/g] | Papp at 16 h, 50 µM [6] [nm/s]
1 | Nc1c(C(=O)O)cnn1-c1ccc(CC(c2ccc(F)cc2)c2nc(-c3ccc(Cl)cc3)no2)cc1 (stereo not given) | 4.6 | 30.8 | 97.3 | 0 | 3 | 91
2 | CC(C)NCC(O)COc1cccc2ccccc12 (stereo not given) [PROPRANOLOL] |  |  |  |  |  | 166
3 | COc1ccc(-c2noc(C(Cc3ccc(-n4ncc(C(=O)O)c4N)cc3)c3ccc(F)cc3)n2)cc1 (stereo not given) | 8.1 | 25.8 | 95.5 | 1.5 | 3 | 4
4 | Nc1c(C(=O)O)cnn1-c1ccc(CN(Cc2ccc(Cl)cc2)Cc2ccc(F)c(F)c2)cc1 | 11 | 22.5 | 97.2 | 1.2 | 2 | 498
5 | Nc1c(C(=O)O)cnn1-c1ccc(CC(C(=O)c2ccc(Cl)cc2)c2ccc(F)cc2)cc1 (stereo not given) |  | 18.8 | 89.5 |  |  | 
6 | Nc1c(C(=O)O)cnn1-c1ccc(CC(C(=O)c2ccccc2)c2ccc(F)c(F)c2)cc1 (stereo not given) |  | 10.5 | 48.5 |  |  | 
7 | COc1ccc(CN(Cc2ccc(F)cc2)Cc2ccc(-n3ncc(C(=O)O)c3N)cc2)cc1OC | 4.1 | 35.1 | 94 | 7.4 | 4 | 
8 | COc1ccc(C(Cc2ccc(-n3ncc(C(=O)O)c3N)cc2)c2nc(-c3ccc(Cl)cc3)no2)cc1 (stereo not given) | 4.4 | 33.7 | 98.3 | 1.5 | 2 | 
9 | Nc1c(C(=O)O)cnn1-c1ccc(CC(C(=O)c2ccc(F)cc2)c2ccc(F)c(F)c2)cc1 (stereo not given) |  | 21.6 | 82.2 |  |  | 
10 | COc1ccc(C(=O)C(Cc2ccc(-n3ncc(C(=O)O)c3N)cc2)c2ccc(OC)cc2)cc1 (stereo not given) |  | 4.8 | 39.7 |  |  | 
11 | Nc1c(C(=O)O)cnn1-c1ccc(CC(c2ccccc2)c2nc(-c3ccccc3)no2)cc1 (stereo not given) |  | 12.2 | 64 |  |  | 
12 | Nc1c(C(=O)O)cnn1-c1ccc(CC(C(=O)c2ccc(Cl)cc2)c2ccc(F)c(F)c2)cc1 (stereo not given) |  | 16.2 | 91.5 |  |  | 15

The remaining lines, values ahead:

Row | Ki [1] [µM] | inhibition [2] [%] | inhibition [3] [%] | CLH [4] [mL/min/g] | intrinsic clearance (CLint) [5] [mL/min/g] | Papp at 16 h, 50 µM [6] [nm/s] | SMILES
13 |  | 5 | 49.7 |  |  |  | COc1ccc(CN(Cc2ccc(C)cc2)Cc2ccc(-n3ncc(C(=O)O)c3N)cc2)cc1
14 |  | 40.8 | 98.4 |  |  |  | Nc1c(C(=O)O)cnn1-c1ccc(CN(Cc2ccc(F)cc2)Cc2ccc(F)cc2)cc1
15 |  | 13.5 | 58.5 |  |  |  | COc1ccc(C(=O)C(Cc2ccc(-n3ncc(C(=O)O)c3N)cc2)c2ccc(F)cc2)cc1 (stereo not given)
16 |  | 9.6 | 32.6 |  |  |  | Nc1c(C(=O)O)cnn1-c1ccc(CC(C(=O)c2ccccc2)c2ccccc2)cc1 (stereo not given)
17 | 8.6 | 22 | 93.3 | 1.3 | 3 |  | COc1ccc(C(Cc2ccc(-n3ncc(C(=O)O)c3N)cc2)c2nc(-c3cccc(F)c3)no2)cc1 (stereo not given)
18 | 7.1 | 9.9 | 76.9 | 5.6 | 2.5 | 125 | COc1ccc(CN(Cc2ccc(OC)cc2)Cc2ccc(-n3ncc(C(=O)O)c3N)cc2)cc1
19 |  | 8.9 | 64 |  |  |  | Nc1c(C(=O)O)cnn1-c1ccc(CN(Cc2ccccc2)Cc2ccccc2)cc1
20 |  | 21.6 | 82.2 |  |  |  | COc1ccc(CN(Cc2ccc(F)cc2)Cc2ccc(-n3ncc(C(=O)O)c3N)cc2)cc1
21 | 4.5 | 43.8 | 97.4 | 2.1 | 3 | 106 | Nc1c(C(=O)O)cnn1-c1ccc(CN(Cc2ccc(F)cc2)Cc2ccc(Cl)cc2)cc1
22 |  | 19 | 94.9 |  |  |  | Nc1c(C(=O)O)cnn1-c1ccc(CC(c2ccc(F)cc2)c2nc(-c3cccc(F)c3)no2)cc1 (stereo not given)
23 | 13 | 19.5 | 95.2 | 2.7 | 3 | 279 | Nc1c(C(=O)O)cnn1-c1ccc(CN(Cc2ccc(F)cc2)Cc2ccc(F)c(F)c2)cc1
24 |  | 12.1 | 36.8 |  |  |  | Nc1c(C(=O)O)cnn1-c1ccc(CC(C(=O)c2ccc(F)cc2)c2ccccc2)cc1 (stereo not given)
25 |  | 19 | 43.9 |  |  |  | Nc1c(C(=O)O)cnn1-c1ccc(CC(C(=O)c2ccccc2)c2ccc(F)cc2)cc1 (stereo not given)
26 |  | 0.8 | 34.4 |  |  |  | Nc1c(C(=O)O)cnn1-c1ccc(CC(C(=O)c2ccc(F)cc2)c2ccc(F)cc2)cc1 (stereo not given)

Source: ChEMBL document CHEMBL3870366, “Rational design, synthesis, and structure-activity relationships of 5-amino-1H-pyrazole-4-carboxylic acid derivatives as protein tyrosine phosphatase 1B inhibitors” (Bioorg Med Chem, 2017)
